{"source": "patent US11426375B2", "about": "“Substituted bisphenyl butanoic ester derivatives as NEP inhibitors” (NOVARTIS AG, priority 2019, dated 2022)", "key": {"[1]": {"set-up": "species or system Sprague Dawley rats", "details": "rat, in vivo, po, 10 mg/kg; for LBQ657 concentration-time profile / conversion to LBQ657: male, Sprague-Dawley", "method": "A parallel study design consisting of four groups with three animals per group was conducted to examine the pharmacokinetic properties of the compounds of the present disclosure.\nThe drugs were administered to each group are as follows: compound I-1 (Group 1), compound I-2 (Group 2), compound I-3 (Group 3), and AHU377 (sacubitril) (Group 4). Each animal received a single 10 mg/kg (5 ml/kg) oral gavage dose of the specified study drug. The animal weights ranged from […] at the beginning of the study. Compound I-1, compound I-2, compound I-3, and AHU377 were formulated in 0.5% methylcellulose (400 cp) and 0.1% Tween 80 (w,v) in water was used as the vehicle. Water bath sonication was applied to facilitate dispersing for all four study drugs. Blood samples for pharmacokinetics analysis were collected at t=0.25, 0.5, 1, 2, 4, 8, and 24 hours (±5%) post dose administration. Plasma was prepared by collecting whole blood samples into tubes containing EDTA and NaF (final concentrations: ˜1 mg/mL (K2EDTA) and ˜2 mg/mL (NaF)). These tubes were kept in an ice bath prior to centrifugation at approximately 2,000 rcf for 10 minutes at approximately 5° C. To each resultant plasma sample, 50% phosphoric acid (v/v) was added to achieve a final concentration of 1% (v,v).\n(§1) [^13C4]-LBQ657 was added as an internal standard to the pharmacokinetic (PK) samples and calibration standards prior to analysis by LC-MS/MS. The LC-MS system consisted of an API6500+ mass spectrometer coupled to an Agilent 1290 HPLC system equipped with a CTC Pal autosampler. The mass spectrometer was operated in the positive ion mode with a TESI ion source."}, "[2]": {"experiment": "Aqueous solubility by visual observation", "format": "physicochemical", "details": "water; based on visual observation", "method": "The solubility value was more than about 500 mg/ml based on visual observation."}, "[3]": {"set-up": "species or system Cynomolgus Monkeys", "details": "cynomolgus monkey, in vivo, po, 10 mg/kg", "method": "A cross-over study design consisting of two groups with two animals per group was conducted to examine the pharmacokinetic properties of compound I-1 of the present disclosure.\nCompound I-1 and AHU377 were administered to each group as follows: compound I-1 on Day 0 followed by AHU377 on Day 2 (Group 1), AHU377 on Day 0 followed by compound I-1 on Day 2 (Group 2). Each animal received a single 10 mg/kg (5 ml/kg) oral gavage dose of the specified study drug on the specified day. The animals were 2.5 to 3.5 years of age and weighed between 3.1 and 4.3 kg at the beginning of the study. Both compounds were formulated in 0.5% methylcellulose (400 cp) and 0.1% Tween 80 (w,v) in water. Blood samples for pharmacokinetics analysis were collected at t=0, 0.25, 0.5, 1, 2, 4, 8, 24 and 48 hours post dose on Day 0 and Day 2. Plasma was prepared by collecting whole blood samples into tubes containing K2EDTA and NaF (final concentrations: ˜1 mg/mL (K2EDTA) and ˜2 mg/mL (NaF)). These tubes were kept in an ice bath prior to centrifugation at approximately 2,000 rcf for 10 minutes at approximately 5° C. To each resultant plasma sample (target volume 200 μL), 4 μL of 50% phosphoric acid (v/v) was added.\nas §1, with “mode.” for “mode with a TESI ion source.”"}, "[4]": {"format": "physicochemical", "details": "for degradation in solution: 1 day", "method": "It was stable at pH of 4.7 and pH of 6.8 up to 70° C. for 3 days."}, "[5]": {"experiment": "Hygroscopicity, weight gain at 90% RH", "format": "physicochemical", "details": "after exposure to 90% RH", "description": "The weight gain of compound I-1 after exposure to 90% RH (relatively humidity) was 0.34%, while that of AHU377 under the same conditions was 3.4%. […] On the other hand, AHU377 is a wax-like solid, which needs to be properly processed before further pharmaceutical processing such as weighing, dispensing and filling."}}, "note": "Where two headings read alike, the source gives them in different places."}
{"compound": "CCOC(=O)[C@H](C)C[C@@H](Cc1ccc(-c2ccccc2)cc1)NC(=O)CCC(=O)N[C@@H](CCCCN)C(=O)O", "note": "[Compound I-2, (4-(((2S,4R)-1-([1,1′-biphenyl]-4-yl)-5-ethoxy-4-methyl-5-oxopentan-2-yl)amino)-4-oxobutanoyl)-L-lysine]", "values": [{"measurement": "LBQ657 concentration-time profile", "setting": "[1]", "value": "flattened relative to AHU377"}, {"measurement": "conversion to LBQ657", "setting": "[1]", "value": "nearly complete conversion to LBQ657"}, {"measurement": "tolerability", "setting": "[1]", "value": "very well tolerated"}, {"measurement": "solubility", "setting": "[2]", "value": "> 500", "unit": "mg/mL"}]}
{"compound": "CCOC(=O)[C@H](C)C[C@@H](Cc1ccc(-c2ccccc2)cc1)NC(=O)CCC(=O)O", "note": "[AHU377, 4-(((2S,4R)-1-([1,1′-biphenyl]-4-yl)-5-ethoxy-4-methyl-5-oxopentan-2-yl)amino)-4-oxobutanoic acid]", "values": [{"measurement": "tolerability", "setting": "[1]", "value": "very well tolerated"}, {"measurement": "tolerability", "setting": "[3]", "value": "well tolerated"}, {"measurement": "degradation in solution", "setting": "[4]; pH 2", "value": 21.49, "unit": "%"}, {"measurement": "degradation in solution", "setting": "[4]; pH 4.7", "value": 2.63, "unit": "%"}, {"measurement": "solution stability under acidic conditions", "setting": "[4]; pH 2", "value": "unstable"}, {"measurement": "weight gain (hygroscopicity)", "setting": "[5]", "value": 3.4, "unit": "%"}]}
{"compound": "CCOC(=O)[C@H](C)C[C@@H](Cc1ccc(-c2ccccc2)cc1)NC(=O)CCC(=O)N[C@@H](CCCCN)C(=O)OC(C)(C)C", "note": "[Compound I-3, Tert-butyl (4-(((2S,4R)-1-([1,1′-biphenyl]-4-yl)-5-ethoxy-4-methyl-5-oxopentan-2-yl)amino)-4-oxobutanoyl)-L-lysinate]", "values": [{"measurement": "LBQ657 concentration-time profile", "setting": "[1]", "value": "flattened relative to AHU377"}, {"measurement": "conversion to LBQ657", "setting": "[1]", "value": "nearly complete conversion to LBQ657"}, {"measurement": "tolerability", "setting": "[1]", "value": "very well tolerated"}]}
